Holding throughout (format): cell-based, human
Experiment [1] has as its system H4 cells stably expressing LC3-GFP. The experiment is described as follows: LC3-GFP autophagosome translocation image-based assay. As to conditions: for autophagy as measured by LC3-GFP translocation: H4 LC3-GFP cells grown in serum-free medium, cytokine 24 hours; for autophagy (autophagosome associated LC3-GFP): H4 LC3-GFP cells in defined medium. As to the method: (§1) H4 human neuroblastoma cells were cultured under standard tissue culture conditions in DMEM media supplemented with 10% normal calf serum, penicillin/streptomycin, sodium pyruvate (Invitrogen) and, where appropriate, 0.4-1.2 mg/mL G418. LC3-GFP and FYVE-dsRed H4 cells were generated as described in Zhang et al., PNAS, 102, 15545-15550 (2007). To create a stable line expressing Lamp1, H4 cells were transfected with Lamp1-RFP plasmid using TransIT LT1 reagent (Minis), followed by selection with 0.4 mg/mL G418. Bcl-2 expressing cell lines were created by infecting LC3-GFP and FYVE-dsRed H4 cells with pBabe-Bcl-2 retrovirus, followed by selection with […] puromycin.
For the cytokine assays, cells were seeded at 0.5×10^5 in full medium in either 24-well (western) or 96-well (LC3-GFP quantification) plates. After 24 hours, cells were washed in PBS and serum-free OptiMEM medium (Invitrogen) was added along with the indicated growth factors and/or cytokines for an additional 24 hours. Growth factors and cytokines used include human TNFα (Cell Sciences), human LIF (GeneScript Corporation), human FGF2 (ProSpec), human IGF1 (ProSpec), human SDF1 (Prospec) and human CLCF1 (R&D Systems). To induce starvation, cells were cultured for 24 hours in full media, washed in PBS and cultured for additional 4 hours in HBSS bedia (Invitrogen). […]
For high-throughput screens, cells were imaged on an automated CellWoRx microscope (Applied Precision) at 10× magnification using 2 wavelengths (350 nm to detect Hoechst, 488 nm to detect LC3-GFP) for the primary screens and 3 wavelengths (350 nm, 488 nm and 550 nm to detect Lamp1-RFP or FYVE-dsRed) for the secondary screens. All images were quantified using VHSscan and VHSview image analysis software (Cellomics). Total cell number, total LC3-GFP intensity/cell as well as number, area and intensity of LC3-GFP positive autophagosomes/cell were scored. All dead and mitotic cells were excluded from analysis based on nuclear intensity. The final autophagy score for each well was obtained by multiplying the total autophagosome intensity/cell by the number of autophagosomes/cell and dividing by the average cell intensity. This formula was empirically determined to accurately measure LC3-GFP translocation from cytosol into autophagosomes as reflected by consistently significant z-scores and p-values when using siRNAs against mTOR and Atg5 controls. FYVE-dsRed and Lamp1-RFP scores were obtained in a manner similar to LC3-GFP scores, except that for Lamp1-RFP, which measures total accumulation of the reporter rather than its translocation, division by the average cell intensity was omitted.
For low-throughput follow-up analysis, cells were grown on glass cover slips. Following fixation in 4% paraformaldehyde and counterstaining with Hoechst, cover slips were mounted in 50% glycerol, 0.1% n-propyl gallate/PBS. Cells were imaged at 40× magnification on a Nikon Eclipse E800 microscope. Cell numbers, cell area and intensity, as well as autophagosome number and intensity, were quantified using Metamorph software. Autophagy was scored as number of autophagosomes per cell.
Human neuroblastoma H4 cells stably expressing the LC3-GFP reporter were used to identify genes involved in the regulation of autophagy in mammals. […] When autophagy is induced in these cells, LC3-GFP is recruited from the cytosol and can be visualized in a punctate pattern corresponding to autophagosomes. In order to validate the system, cells were transfected with siRNA against either the essential autophagy mediator ATG5 or against mTOR, a suppressor of starvation-induced autophagy. Following 72 hours of incubation under normal nutritional conditions, […].

In the next experiment the test system is type III PI3 kinase. The experiment is described as follows: FYVE-dsRed reporter assay of PtdIns3P levels. As to the method:
as §1
For secondary screens, a siRNA library was used in which the 4 siRNAs of each siRNA pool were separated into individual wells. […]
For high-throughput screens, cells were imaged on an automated CellWoRx microscope (Applied Precision) at 10× magnification using 2 wavelengths (350 nm to detect Hoechst, 488 nm to detect LC3-GFP) for the primary screens and 3 wavelengths (350 nm, 488 nm and 550 nm to detect Lamp1-RFP or FYVE-dsRed) for the secondary screens. All images were quantified using VHSscan and VHSview image analysis software (Cellomics). Total cell number, total LC3-GFP intensity/cell as well as number, area and intensity of LC3-GFP positive autophagosomes/cell were scored. […]
On the technique in general: In a reporter assay the amount or activity of a reporter protein is the signal.

Experiment [2] concerns H4 cells. The experiment is described as follows: Western blot of autophagy markers (LC3, p62). As to conditions: for autophagy by western blot (LC3II accumulation, LC3 II/tubulin): serum-free medium, 100 ng/mL IGF1, 50 ng/mL FGF2, LIF or CLCF1, 10 μg/mL E64d, with or without 50 nM rapamycin, H4, HEK293, HeLa, MCF7. As to the method: For the cytokine assays, cells were seeded at 0.5×10^5 in full medium in either 24-well (western) or 96-well (LC3-GFP quantification) plates. After 24 hours, cells were washed in PBS and serum-free OptiMEM medium (Invitrogen) was added along with the indicated growth factors and/or cytokines for an additional 24 hours. Growth factors and cytokines used include human TNFα (Cell Sciences), human LIF (GeneScript Corporation), human FGF2 (ProSpec), human IGF1 (ProSpec), human SDF1 (Prospec) and human CLCF1 (R&D Systems). To induce starvation, cells were cultured for 24 hours in full media, washed in PBS and cultured for additional 4 hours in HBSS bedia (Invitrogen).
For western blot analysis, lysosomal protease inhibitor E64d (Sigma) was added at a concentration of 10 μg/mL for the last 8-12 hours before cell lysis.
(§2) For western blots, cells were lysed in Lammeli sample buffer, resolved on a 10-12% SDS-PAGE gel and transferred to PVDF membrane. The following antibodies were used: LC3 (Novus), p62 (Pharmigen), phospho-S6K (Thr389), phospho-Akt (Ser473), phospho-Stat3 (Tyr705), RelA, Sod1, phospho-PTEN (Ser380/Thr382/383) (all Cell Signaling), Bcl-2 (Santa Cruz), all at 1:1000, phospho-S6 (Ser235/236) (Cell Signaling) and phospho-ERK 1/2 (Sigma) at 1:2000, tubulin (Sigma) at 1:5000. Where indicated, blots were quantified using NIH ImageJ64 software.

In experiment [3] the test system is H4 cells. The experiment is described as follows: Western blot of signalling protein levels and phosphorylation. As to conditions: for activating phosphorylation of Stat3: 50 ng/mL LIF or CLCF1.
Excerpt: as §2
On the technique in general: Immunoblotting shows a protein as a band on a membrane.

[4] abbreviates: 100 ng/mL IGF1 plus Akt inhibitor VIII.

“Also recorded” adds a separate entry of the source.

As for `Cn1cnc(=N)c2[nH]cnc21` [3MA, reference compound], in experiment [1] (H4 GFP-LC3 cells, 3MA), the “effect on induction of autophagy in response to Aβ” value is “attenuate induction of autophagy”. Also, the “effect on Aβ-induced accumulation of PtdIns3P” value in the experiment with type III PI3 kinase (3MA 10 mM, 8 hours prior to fixation) is on record as “suppressed”.

As for `O=c1[nH]c2ccccc2n1C1CCN(Cc2ccc(-c3nc4cc5[nH]cnc5cc4nc3-c3ccccc3)cc2)CC1` [Akt inhibitor VIII, reference compound], the “effect on inhibition of autophagy by IGF1” value in the experiment with H4 cells [2] (setting [4]) is listed as “prevented inhibition of autophagy”. For the same molecule, the “phosphorylation of Foxo3a and S6 kinase” value with H4 cells [3] (setting [4]) was “attenuated phosphorylation”.

Turning to `CC(=O)N[C@@H](CS)C(=O)O` [NAC, N-acetyl-L-cysteine, reference compound], in experiment [1] (H4 LC3-GFP cells, 2.5 mM NAC), the “effect on induction of autophagy caused by knock-down of Sod1” value is listed as “significantly attenuated”. The “effect on elevated induction of autophagy in response to starvation” value in experiment [1] (RelA deficient H4 cells, 2.5 mM NAC) was “attenuated”. Further, in the experiment on type III PI3 kinase (with antioxidant NAC), the “effect on Aβ-induced accumulation of PtdIns3P” value is on record as “suppressed”.

As to `N#CC(=C(/N)Sc1ccccc1N)/C(C#N)=C(/N)Sc1ccccc1N` [UO126, reference compound], the “effect on inhibition of autophagy by FGF2 (LC3 western)” value in the experiment with H4 cells [2] (H4 cells, serum-free media, 50 ng/mL FGF2, 10 μg/mL E64d, UO126 pre-treatment) is “attenuated inhibition of autophagy; also recorded: prevented”.

For “FGF2: human FGF2 (ProSpec); fibroblast growth factor 2 (basic)”, the “autophagy as measured by LC3-GFP translocation” value (shortened to “autophagy as measured”) in experiment [1] was “significant down-regulation of autophagy”. Moreover, the “autophagy by western blot (LC3II accumulation, LC3 II/tubulin)” value (“autophagy by western blot” for short) in the experiment on H4 cells [2] was “suppress autophagy in the absence and presence of rapamycin”. Further, the “level of phospho-ERK1/2 and phospho-RSK” value in the experiment on H4 cells [3] (H4 cells, serum-free media, 50 ng/mL FGF2) is “increased level”.

Take “IGF1: human IGF1 (ProSpec); insulin-like growth factor 1”: the “autophagy as measured” value in experiment [1] is “significant down-regulation of autophagy”. Also, the “autophagy by western blot” value with H4 cells [2] was “suppress autophagy in the absence and presence of rapamycin”. Also, in the experiment on H4 cells [3] (IGF-1 treatment, absence and presence of rapamycin), the “phosphorylation of Akt and Foxo3a” value is “increased”.

For “LIF: human LIF (GeneScript Corporation); leukemia inhibitory factor”, in experiment [1], the “autophagy as measured” value was “significant down-regulation of autophagy”. Moreover, in the experiment with H4 cells [2], the “autophagy by western blot” value is “suppress autophagy in the absence and presence of rapamycin”. In addition, the “activating phosphorylation of Stat3” value in the experiment on H4 cells [3] is reported as “increased activating phosphorylation of Stat3”.

Turning to “SDF1: human SDF1 (Prospec); chemokine SDF1 (CXCL12)”, the “autophagy as measured” value in experiment [1] is “significant down-regulation of autophagy”.

In the case of TNFα, the “autophagy (autophagosome associated LC3-GFP)” value is recorded as “up-regulation of autophagy” in experiment [1] (higher doses of TNFα) and “down-regulation of autophagy” in experiment [1] (low doses of TNFα). In addition, in the experiment on H4 cells [2] (low levels of TNFα (5 ng/ml), nutrient deprivation), the “p62 level by western blot” value is “significant accumulation of p62”.

B1: CLCF1: human CLCF1 (R&D Systems); cardiotrophin-like cytokine factor 1 (protein, UniProt Q9UBD9 28-225, looked up)
Cardiotrophin-like cytokine …: LNRTGDPGPGPSIQKTYDLTRYLEHQLRSLAGTYLNYLGPPFNEPDFNPPRLGAETLPRATVDLEVWRSLNDKLRLTQNYEAYSHLLCYLRGLNRQAATAELRRSLAHFCTSLQGLLGSIAGVMAALGYPLPQPLPGTEPTWTPGPAHSDFLQKMDDFWLLKELQTWLWRSAKDFNRLKKKMQPPAAAVTLHLGAHGF
On to B1, for which the “autophagy as measured” value in experiment [1] is on record as “significant down-regulation of autophagy”. In addition, the “autophagy by western blot” value with H4 cells [2] is “suppress autophagy in the absence and presence of rapamycin”. In the experiment with H4 cells [3], the “activating phosphorylation of Stat3” value was “increased activating phosphorylation of Stat3”.

These data come from US20160194631A1, “Methods for Modulation of Autophagy Through the Modulation of Autophagy-Inhibiting Gene Products” (Harvard Medical School, priority 2009, published 2016).
